From US20240398813A1, “PHARMACEUTICAL COMPOSITION FOR PREVENTING OR TREATING OVERACTIVE BLADDER” (GWANGJU INSTITUTE OF SCIENCE AND TECHNOLOGY, priority 2021, published 2024)
Values joined by “and” are separate entries in the source; they are usually repeats but may differ in a detail not shown here. Equal entries are not always repeated.

How the values were obtained:
[1] = molecular target: T1, hyperactive mutant BKCa channels (hSlo G803D/N806K) stably expressed in AD 293 cells (Homo sapiens, UniProt Q12791, G856D/N859K); assay: Cell-based fluorescence assay (FluxOR Potassium Ion Channel Assay) of BKCa channel activation; parameters: key to Channel activity increase for 80 s (ΔRFU) at 6 μM: ratio of ΔRFU (RFU at 100 s − 20 s) to the same ΔRFU for vehicle; conditions: for Initial velocity of channel activation for 4 s (vi) at 6 μM: first 4 s after channel stimulation; for Channel activity increase for 80 s (ΔRFU) at 6 μM: normalized by vehicle; for EC50: fit of dose-response curve of initial rates, read-out: Apparent EC50 based on vi; for activation effect on the BKCa channels at a single concentration: 3 μM
T1 construct: expressed in transfected cells
Procedure: AD 293 cells, which are derivatives of the commonly used HEK 293 cell line and stably express hyperactive mutant BKCa channels (hSlo G803D/N806K) to sensitively detect the effect (Lee et al., 2013), were cultured in Dulbecco' modified Eagle medium (Hyclone, Logan, Utah, […]) supplemented with 10% fetal bovine serum, and selected with 1 mg/mL Geneticin (Gibco, Amarillo, TX, USA). 20,000 cells per well were seeded on a 96-well clear-bottom black plate (Corning, New York, NY, USA) coated with poly-D-lysine (Gibco). BKCa channel activity was measured using the cell-based fluorescence assay, FluxOR Potassium Ion Channel Assay (Thermo Fisher Scientific, Waltham, MA, USA). Experimental procedures were performed according to the manufacturer's instructions. The cells were treated with test compounds dissolved in assay buffer for 15 minutes. Fluorescence was measured using a FlexStation3 multimode microplate reader (Molecular Devices, Silicon Valley, CA, USA) and SoftMax Pro (Molecular Devices). Excitation and emission wavelengths were set to 485 nm and 528 nm, respectively. Fluorescence signals were acquired every 2 seconds for 120 seconds and normalized by the relative fluorescence unit (RFU). The efficacy of a channel activator was determined by analyzing changes (ΔRFU) in the RFU for 80 seconds after channel stimulation.
Activation effects of the synthesized compounds on BKCa channels were evaluated using cell-based fluorescence assay. NS11021 was used as the positive control. The effects were determined based on the initial rate (vi) of channel activation and the apparent EC50 value obtained from fitting data of the dose-response curve. Here, Vi means change values for 4 seconds at the start of channel opening (vi={RFU(t=24 s)−RFU(t=20 s)}/4 s). […]

[2] = molecular target: T1, hyperactive mutant BKCa channels (hSlo G803D/N806K) stably expressed in AD 293 cells; assay: as above; conditions: compounds at 5 μM; n=3; vehicle 0.26

T1 sequence (Q12791 whole entry G856D/N859K): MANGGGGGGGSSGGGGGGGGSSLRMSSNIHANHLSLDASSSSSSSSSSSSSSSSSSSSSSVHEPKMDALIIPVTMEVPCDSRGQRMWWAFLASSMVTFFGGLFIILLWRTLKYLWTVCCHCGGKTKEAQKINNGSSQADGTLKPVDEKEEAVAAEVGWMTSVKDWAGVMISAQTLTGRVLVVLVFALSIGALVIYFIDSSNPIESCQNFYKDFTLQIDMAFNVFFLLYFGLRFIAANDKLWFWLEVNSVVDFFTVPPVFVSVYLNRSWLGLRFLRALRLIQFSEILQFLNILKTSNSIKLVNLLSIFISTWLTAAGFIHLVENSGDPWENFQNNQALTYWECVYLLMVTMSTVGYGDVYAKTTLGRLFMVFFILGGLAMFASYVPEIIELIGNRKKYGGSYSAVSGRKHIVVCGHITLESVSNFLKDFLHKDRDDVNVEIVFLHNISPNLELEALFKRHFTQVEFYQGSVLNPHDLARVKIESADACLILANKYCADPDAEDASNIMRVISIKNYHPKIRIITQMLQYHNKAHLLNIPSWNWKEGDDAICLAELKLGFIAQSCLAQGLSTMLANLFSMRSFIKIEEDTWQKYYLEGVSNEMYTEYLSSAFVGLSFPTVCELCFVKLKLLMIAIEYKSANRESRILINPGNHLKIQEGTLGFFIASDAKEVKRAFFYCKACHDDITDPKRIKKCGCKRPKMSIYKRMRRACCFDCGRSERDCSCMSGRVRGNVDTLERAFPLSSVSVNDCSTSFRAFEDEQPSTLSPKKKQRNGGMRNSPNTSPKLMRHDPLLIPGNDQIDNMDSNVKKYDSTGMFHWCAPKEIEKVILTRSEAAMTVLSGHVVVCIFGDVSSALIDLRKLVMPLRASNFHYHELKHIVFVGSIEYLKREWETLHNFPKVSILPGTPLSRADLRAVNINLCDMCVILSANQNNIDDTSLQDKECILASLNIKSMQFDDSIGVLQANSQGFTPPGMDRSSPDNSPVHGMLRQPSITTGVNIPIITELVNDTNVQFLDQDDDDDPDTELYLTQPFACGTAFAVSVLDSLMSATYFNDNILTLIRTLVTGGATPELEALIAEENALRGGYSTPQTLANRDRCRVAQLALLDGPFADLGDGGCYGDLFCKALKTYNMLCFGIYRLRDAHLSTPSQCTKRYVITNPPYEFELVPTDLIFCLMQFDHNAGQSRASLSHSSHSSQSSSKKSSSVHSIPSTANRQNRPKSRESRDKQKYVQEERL

Cc1ccc(NC(=O)c2sc(=S)n3c2[nH]c(=O)c2cc(Br)ccc23)cc1 [Compound 203, 7-bromo-5-oxo-1-thioxo-N-(p-tolyl)-4,5-dihydro-1H-thiazolo[3,4-a]quinazoline-3-carboxamide]
Initial velocity of channel activation for 4 s (vi) at 6 μM [1]: 0.71 s⁻¹ | Channel activity increase for 80 s (ΔRFU) at 6 μM [1]: 1.41

COc1cccc(NC(=O)c2sc(=S)n3c2[nH]c(=O)c2cc(Br)ccc23)c1 [Compound 204, 7-bromo-N-(3-methoxyphenyl)-5-oxo-1-thioxo-4,5-dihydro-1H-thiazolo[3,4-a]quinazoline-3-carboxamide]
Initial velocity of channel activation for 4 s (vi) at 6 μM [1]: 6.00 s⁻¹ | Channel activity increase for 80 s (ΔRFU) at 6 μM [1]: 3.35 | EC50 [1]: 6.6 µM

O=C(Nc1cccc(O)c1)c1sc(=S)n2c1[nH]c(=O)c1cc(Br)ccc12 [Compound 205, 7-bromo-N-(3-hydroxyphenyl)-5-oxo-1-thioxo-4,5-dihydro-1H-thiazolo[3,4-a]quinazoline-3-carboxamide]
Initial velocity of channel activation for 4 s (vi) at 6 μM [1]: 4.03 s⁻¹ | Channel activity increase for 80 s (ΔRFU) at 6 μM [1]: 4.88 | EC50 [1]: 11.2 µM

O=C(Nc1cccc(F)c1)c1sc(=S)n2c1[nH]c(=O)c1cc(Br)ccc12 [Compound 206, 7-bromo-N-(3-fluorophenyl)-5-oxo-1-thioxo-4,5-dihydro-1H-thiazolo[3,4-a]quinazoline-3-carboxamide]
BKCa activity [1]: significant improvement | Initial velocity of channel activation for 4 s (vi) at 6 μM [1]: 12.55 s⁻¹ | Channel activity increase for 80 s (ΔRFU) at 6 μM [1]: 2.85 | EC50 [1]: 1.14 µM

O=C(Nc1cccc(Cl)c1)c1sc(=S)n2c1[nH]c(=O)c1cc(Br)ccc12 [Compound 207, 7-bromo-N-(3-chlorophenyl)-5-oxo-1-thioxo-4,5-dihydro-1H-thiazolo[3,4-a]quinazoline-3-carboxamide]
Initial velocity of channel activation for 4 s (vi) at 6 μM [1]: 16.12 s⁻¹ | Channel activity increase for 80 s (ΔRFU) at 6 μM [1]: 3.56 | EC50 [1]: 4.85 µM

O=C(Nc1cccc(OC(F)(F)F)c1)c1sc(=S)n2c1[nH]c(=O)c1cc(Br)ccc12 [Compound 209, 7-bromo-5-oxo-1-thioxo-N-(3-(trifluoromethoxy)phenyl)-4,5-dihydro-1H-thiazolo[3,4-a]quinazoline-3-carboxamide]
Initial velocity of channel activation for 4 s (vi) at 6 μM [1]: 14.78 s⁻¹ | Channel activity increase for 80 s (ΔRFU) at 6 μM [1]: 4.37 | EC50 [1]: 3.82 µM

O=C(Nc1cc(C(F)(F)F)cc(C(F)(F)F)c1)c1sc(=S)n2c1[nH]c(=O)c1cc(Br)ccc12 [Compound 210, N-(3,5-bis(trifluoromethyl)phenyl)-7-bromo-5-oxo-1-thioxo-4,5-dihydro-1H-thiazolo[3,4-a]quinazoline-3-carboxamide]
Initial velocity of channel activation for 4 s (vi) at 6 μM [1]: 2.08 s⁻¹ | Channel activity increase for 80 s (ΔRFU) at 6 μM [1]: 2.28 | EC50 [1]: 17.3 µM

FC(F)(F)c1cc(NC(=S)Nc2ccc(Br)cc2-c2nn[nH]n2)cc(C(F)(F)F)c1 [NS11021, reference compound]
activation effect on the BKCa channels at a single concentration [1]: significant activation effects | Initial velocity of channel activation for 4 s (vi) at 6 μM [1]: 1.63 s⁻¹ | Channel activity increase for 80 s (ΔRFU) at 6 μM [1]: 1.86 | EC50 [1]: 14.9 µM and 14.3 µM

COC(=O)c1ccc2c(=O)[nH]c3c(C(=O)Nc4cccc(F)c4)sc(=S)n3c2c1 [TTQC-2, methyl 3-((3-fluorophenyl)carbamoyl)-5-oxo-1-thioxo-4,5-dihydro-1H-thiazolo[3,4-a]quinazoline-8-carboxylate]
Activity (ΔRFU normalized by activities of LDD175) [2]: 0.99

CCOC(=O)c1ccc(NC(=O)c2sc(=S)n3c2[nH]c(=O)c2ccc(Cl)cc23)cc1 [TTQC-3, ethyl 4-(8-chloro-5-oxo-1-thioxo-4,5-dihydro-1H-thiazolo[3,4-a]quinazoline-3-carboxamido)benzoate]
Activity (ΔRFU normalized by activities of LDD175) [2]: 0.96

CCc1ccccc1NC(=O)c1sc(=S)n2c1[nH]c(=O)c1ccc(Cl)cc12 [TTQC-4, 8-chloro-N-(2-ethylphenyl)-5-oxo-1-thioxo-4,5-dihydro-1H-thiazolo[3,4-a]quinazoline-3-carboxamide]
Activity (ΔRFU normalized by activities of LDD175) [2]: 0.95

COc1ccccc1NC(=O)c1sc(=S)n2c1[nH]c(=O)c1cc(Cl)ccc12 [TTQC-5, 7-chloro-N-(2-methoxyphenyl)-5-oxo-1-thioxo-4,5-dihydro-1H-thiazolo[3,4-a]quinazoline-3-carboxamide]
Activity (ΔRFU normalized by activities of LDD175) [2]: 0.90

CC(C)NC(=O)c1sc(=S)n2c1[nH]c(=O)c1cc(Br)ccc12 [TTQC-6, 7-bromo-N-isopropyl-5-oxo-1-thioxo-4,5-dihydro-1H-thiazolo[3,4-a]quinazoline-3-carboxamide]
Activity (ΔRFU normalized by activities of LDD175) [2]: 0.90

Cc1ccc2c(c1)c(=O)[nH]c1c(C(=O)Nc3cc(Cl)ccc3C)sc(=S)n12 [TTQC-7, N-(5-chloro-2-methylphenyl)-7-methyl-5-oxo-1-thioxo-4,5-dihydro-1H-thiazolo[3,4-a]quinazoline-3-carboxamide]
Activity (ΔRFU normalized by activities of LDD175) [2]: 0.89

COC(=O)c1ccc2c(=O)[nH]c3c(C(=O)NCc4ccccc4Cl)sc(=S)n3c2c1 [TTQC-8, methyl 3-((2-chlorobenzyl)carbamoyl)-5-oxo-1-thioxo-4,5-dihydro-1H-thiazolo[3,4-a]quinazoline-8-carboxylate]
Activity (ΔRFU normalized by activities of LDD175) [2]: 0.84

Cc1ccc(NC(=O)c2sc(=S)n3c2[nH]c(=O)c2cc(Cl)ccc23)c(C)c1 [TTQC-9, 7-chloro-N-(2,4-dimethylphenyl)-5-oxo-1-thioxo-4,5-dihydro-1H-thiazolo[3,4-a]quinazoline-3-carboxamide]
Activity (ΔRFU normalized by activities of LDD175) [2]: 0.84

Cc1ccc(NC(=O)c2sc(=S)n3c2[nH]c(=O)c2cc(Br)ccc23)c(C)c1 [TTQC-10, 7-bromo-N-(2,4-dimethylphenyl)-5-oxo-1-thioxo-4,5-dihydro-1H-thiazolo[3,4-a]quinazoline-3-carboxamide]
Activity (ΔRFU normalized by activities of LDD175) [2]: 0.83

Cc1ccc2c(c1)c(=O)[nH]c1c(C(=O)Nc3ccccc3C)sc(=S)n12 [TTQC-11, 7-methyl-5-oxo-1-thioxo-N-(o-tolyl)-4,5-dihydro-1H-thiazolo[3,4-a]quinazoline-3-carboxamide]
Activity (ΔRFU normalized by activities of LDD175) [2]: 0.82

Cc1ccc(Cl)cc1NC(=O)c1sc(=S)n2c1[nH]c(=O)c1cc3c(cc12)OCO3 [TTQC-12, N-(5-chloro-2-methylphenyl)-5-oxo-1-thioxo-4,5-dihydro-1H-[1,3]dioxolo[4,5-g]thiazolo[3,4-a]quinazoline-3-carboxamide]
Activity (ΔRFU normalized by activities of LDD175) [2]: 0.81

COC(=O)c1ccc2c(=O)[nH]c3c(C(=O)Nc4ccc(F)cc4F)sc(=S)n3c2c1 [TTQC-13, methyl 3-((2,4-difluorophenyl)carbamoyl)-5-oxo-1-thioxo-4,5-dihydro-1H-thiazolo[3,4-a]quinazoline-8-carboxylate]
Activity (ΔRFU normalized by activities of LDD175) [2]: 0.79

Cc1ccc(CNC(=O)c2sc(=S)n3c2[nH]c(=O)c2cc(Br)ccc23)cc1 [TTQC-14, 7-bromo-N-(4-methylbenzyl)-5-oxo-1-thioxo-4,5-dihydro-1H-thiazolo[3,4-a]quinazoline-3-carboxamide]
Activity (ΔRFU normalized by activities of LDD175) [2]: 0.76

COc1ccc(OC)c(NC(=O)c2sc(=S)n3c2[nH]c(=O)c2cc(Br)ccc23)c1 [TTQC-15, 7-bromo-N-(2,5-dimethoxyphenyl)-5-oxo-1-thioxo-4,5-dihydro-1H-thiazolo[3,4-a]quinazoline-3-carboxamide]
Activity (ΔRFU normalized by activities of LDD175) [2]: 0.71

O=C(NCC1CCCO1)c1sc(=S)n2c1[nH]c(=O)c1cc(Br)ccc12 (stereo not drawn) [TTQC-16, 7-bromo-5-oxo-N-((tetrahydrofuran-2-yl)methyl)-1-thioxo-4,5-dihydro-1H-[1,3]thiazolo[3,4-a]quinazoline-3-carboxamide]
Activity (ΔRFU normalized by activities of LDD175) [2]: 0.64

C=C(C)[C@H](CC=C(C)C)Cc1c(O)cc(OC)c2c1O[C@H](c1ccc(O)cc1O)CC2=O [kurarinone, reference compound]
activation effect on the BKCa channels at a single concentration [1]: significant activation effects

CC(=O)c1c(O)c(C)c(O)c(Cc2c(O)c3c(c(C(=O)/C=C/c4ccccc4)c2O)OC(C)(C)C=C3)c1O [rottlerin, reference compound]
activation effect on the BKCa channels at a single concentration [1]: significant activation effects
